Laboratory results reported in ChEMBL document CHEMBL4390652, “Design, biological evaluation and X-ray crystallography of nanomolar multifunctional ligands targeting simultaneously acetylcholinesterase and glycogen synthase kinase-3” (Eur J Med Chem, 2019).

What was measured:
[1] = molecular target: Cyclin-dependent kinase 5/CDK5 activator 1 (Homo sapiens, UniProt Q00535); format: protein-complex assay
Description: Inhibition of human recombinant CDK5/p25 using histone H1 as substrate in presence of [gamma-33P]ATP incubated for 30 mins by liquid scintillation counting assay

[2] = molecular target: Glycogen synthase kinase-3 (Sus scrofa, UniProt B2LUN4+I6LNT8)
Description: Inhibition of native porcine brain GSK-3alpha/beta using GS-1 as substrate incubated for 30 mins in presence of [gamma-33P]ATP by liquid scintillation counting assay

Acetylcholinesterase = Acetylcholinesterase (Homo sapiens, UniProt P22303); assay: Inhibition of human recombinant AChE using ATCh as substrate preincubated for 20 mins followed by substrate addition and measured for 3 mins by Ellman method
Acetylcholinesterase, sequence (P22303 whole entry): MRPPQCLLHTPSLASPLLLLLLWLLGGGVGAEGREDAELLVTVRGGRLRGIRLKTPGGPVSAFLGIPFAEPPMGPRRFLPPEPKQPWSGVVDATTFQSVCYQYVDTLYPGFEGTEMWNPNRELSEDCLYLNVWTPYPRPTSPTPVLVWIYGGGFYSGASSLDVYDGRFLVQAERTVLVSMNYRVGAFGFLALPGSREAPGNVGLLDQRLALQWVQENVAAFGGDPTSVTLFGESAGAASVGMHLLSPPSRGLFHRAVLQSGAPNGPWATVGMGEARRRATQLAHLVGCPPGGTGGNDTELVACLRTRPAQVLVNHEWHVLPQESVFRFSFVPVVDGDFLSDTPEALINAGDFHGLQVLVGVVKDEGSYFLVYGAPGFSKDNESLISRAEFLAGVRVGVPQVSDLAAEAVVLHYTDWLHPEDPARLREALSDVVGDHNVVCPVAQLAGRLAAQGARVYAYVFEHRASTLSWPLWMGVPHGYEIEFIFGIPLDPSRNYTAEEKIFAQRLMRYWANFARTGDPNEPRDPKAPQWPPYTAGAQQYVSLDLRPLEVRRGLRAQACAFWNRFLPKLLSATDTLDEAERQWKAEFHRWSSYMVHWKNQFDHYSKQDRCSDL

Cholinesterase = Cholinesterase (Homo sapiens, UniProt P06276); assay: Inhibition of human serum BChE using BTCh as substrate preincubated for 20 mins followed by substrate addition and measured for 3 mins by Ellman's method
Cholinesterase, sequence (P06276 whole entry): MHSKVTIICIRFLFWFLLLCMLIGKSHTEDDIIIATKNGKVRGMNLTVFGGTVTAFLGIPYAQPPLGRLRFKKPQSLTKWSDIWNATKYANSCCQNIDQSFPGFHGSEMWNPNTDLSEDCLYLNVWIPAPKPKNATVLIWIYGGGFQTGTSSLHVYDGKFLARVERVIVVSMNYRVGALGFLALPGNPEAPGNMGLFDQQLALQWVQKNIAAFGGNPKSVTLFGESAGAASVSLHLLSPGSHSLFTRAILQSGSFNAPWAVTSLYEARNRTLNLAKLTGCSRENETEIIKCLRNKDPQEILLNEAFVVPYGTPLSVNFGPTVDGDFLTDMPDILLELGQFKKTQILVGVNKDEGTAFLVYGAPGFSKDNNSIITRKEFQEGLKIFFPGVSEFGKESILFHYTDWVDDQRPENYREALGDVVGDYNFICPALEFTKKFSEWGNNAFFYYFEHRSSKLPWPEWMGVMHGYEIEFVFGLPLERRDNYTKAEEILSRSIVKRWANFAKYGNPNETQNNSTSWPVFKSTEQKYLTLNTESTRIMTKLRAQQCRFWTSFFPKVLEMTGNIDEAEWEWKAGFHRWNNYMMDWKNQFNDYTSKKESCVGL

Huh-7 = assay: Cytotoxicity against human HuH7 cells assessed as growth inhibition incubated for 48 hrs by Hoechst 33342 staining based assay; format: cell-based; details: Huh-7, 48 h
Caco-2 = assay: Cytotoxicity against human Caco2 cells assessed as growth inhibition incubated for 48 hrs by Hoechst 33342 staining based assay; format: cell-based; details: Caco-2, 48 h
MDA-MB-231 = assay: Cytotoxicity against human MDA-MB-231 cells assessed as growth inhibition incubated for 48 hrs by Hoechst 33342 staining based assay; format: cell-based; details: MDA-MB-231, 48 h
HCT-116 = assay: Cytotoxicity against human HCT116 cells assessed as growth inhibition incubated for 48 hrs by Hoechst 33342 staining based assay; format: cell-based; details: HCT-116, 48 h
PC-3 = assay: Cytotoxicity against human PC3 cells assessed as growth inhibition incubated for 48 hrs by Hoechst 33342 staining based assay; format: cell-based; details: PC-3, 48 h
NCI-H727 = assay: Cytotoxicity against human NCI-H727 cells assessed as growth inhibition incubated for 48 hrs by Hoechst 33342 staining based assay; format: cell-based; details: NCI-H727, 48 h
HaCaT = assay: Cytotoxicity against human HaCaT cells assessed as growth inhibition incubated for 48 hrs by Hoechst 33342 staining based assay; format: cell-based
[3] = Cytotoxicity against human SH-SY5Y cells assessed as reduction in cell viability at 100 uM incubated for 24 hrs by MTT assay relative to untreated cells; format: cell-based; details: read-out: INH
SH-SY5Y = assay: Cytotoxicity against human SH-SY5Y cells assessed as reduction in cell viability incubated for 72 hrs by MTT assay; format: cell-based
MDCK-MDR1 = assay: Cytotoxicity against MDCK2-MDR1 cells assessed as reduction in cell viability at 75 uM incubated for 2 hrs by MTT assay; format: ADME, cell-based, Canis lupus familiaris; details: dog, mdck-mdr1, 2 h
MDR1 [4] = assay: in vitro; details: dog, MDCK-MDR1
Description: Apparent permeability across apical to basolateral side in MDCK2-MDR1 cells by HPLC analysis

MDR1 [5] = assay: in vitro; details: dog, MDCK-MDR1; remark: listed apart in the source
Description: Apparent permeability across basolateral to apical side in MDCK2-MDR1 cells by HPLC analysis

MDR1 [6] = assay: in vitro; details: dog, MDCK-MDR1; remark: listed apart in the source
Description: Efflux ratio of apparent permeability from basolateral to apical over apical to basolateral side in MDCK2-MDR1 cells by HPLC analysis

Cyclin-dependent kinase 5/CDK5 activator 1, sequence (Q00535 whole entry): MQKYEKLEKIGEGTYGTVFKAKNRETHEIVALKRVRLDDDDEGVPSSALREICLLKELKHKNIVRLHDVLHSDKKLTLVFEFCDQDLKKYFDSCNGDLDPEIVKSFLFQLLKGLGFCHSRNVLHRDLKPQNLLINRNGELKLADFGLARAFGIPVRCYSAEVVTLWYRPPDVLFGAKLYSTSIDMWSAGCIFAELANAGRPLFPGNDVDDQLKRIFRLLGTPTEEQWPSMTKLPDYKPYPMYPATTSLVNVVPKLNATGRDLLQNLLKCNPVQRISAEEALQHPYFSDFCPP
Cyclin-dependent kinase 5/CDK5 activator 1, sequence (Q15078 whole entry, further chain): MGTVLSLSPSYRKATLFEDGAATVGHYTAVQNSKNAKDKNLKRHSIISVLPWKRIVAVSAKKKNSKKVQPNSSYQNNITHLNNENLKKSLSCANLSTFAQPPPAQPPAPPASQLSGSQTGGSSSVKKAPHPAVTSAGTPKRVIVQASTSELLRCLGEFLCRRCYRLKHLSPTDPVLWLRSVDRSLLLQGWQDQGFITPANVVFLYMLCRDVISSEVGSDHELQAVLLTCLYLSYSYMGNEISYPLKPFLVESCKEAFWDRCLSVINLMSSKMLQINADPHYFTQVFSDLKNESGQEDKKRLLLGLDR

Cn1cc(COCc2ccnc(NC(=O)Nc3cccc4c3C3CCCCN3C4=O)c2)nn1 (racemic)
IC50 [1]: 250 nM
IC50 [2]: 25 nM

C#Cc1ccnc(NC(=O)Nc2cccc3c2[C@H]2CCCCN2C3=O)c1
IC50 [1]: 18 nM
IC50 [2]: 33 nM

O=C(Nc1cc(COCc2cn(CCNc3ccnc4ccccc34)nn2)ccn1)Nc1cccc2c1C1CCCCN1C2=O (racemic)
IC50 [1]: 240 nM
IC50 [2]: > 10000 nM

C#Cc1cccc(NC(=O)Nc2cccc3c2C2CCCCN2C3=O)n1 (racemic)
IC50 [1]: 80 nM
IC50 [2]: 300 nM

C#CCN(C)Cc1ccnc(NC(=O)Nc2cccc3c2C2CCCCN2C3=O)c1 (racemic)
IC50 [1]: 90 nM
IC50 [2]: 11 nM

O=C(Nc1cc(COCc2cn(CCNc3ccncc3)nn2)ccn1)Nc1cccc2c1C1CCCCN1C2=O (racemic)
IC50 [1]: 200 nM
IC50 [2]: 30 nM

O=C(Nc1cc(-c2cn(CCNc3c4c(nc5ccccc35)CCCC4)nn2)ccn1)Nc1cccc2c1[C@@H]1CCCCN1C2=O
IC50 (Acetylcholinesterase): 13.7 nM
IC50 (Cholinesterase): 254 nM
IC50 [1]: 1100 nM
IC50 (Huh-7): 2600 nM
IC50 (Caco-2): 10000 nM
IC50 (MDA-MB-231): 4000 nM
IC50 (HCT-116): 2700 nM
IC50 (PC-3): 6000 nM
IC50 (NCI-H727): 7000 nM
IC50 [2]: 19 nM

C#CCOCc1ccnc(NC(=O)Nc2cccc3c2C2CCCCN2C3=O)c1 (racemic)
IC50 [1]: 150 nM
IC50 [2]: 60 nM

C#Cc1ccc(NC(=O)Nc2cccc3c2C2CCCCN2C3=O)nc1 (racemic)
IC50 [1]: > 10000 nM
IC50 [2]: > 10000 nM

O=C(Nc1cccc(-c2cn(CCNc3c4c(nc5ccccc35)CCCC4)nn2)n1)Nc1cccc2c1C1CCCCN1C2=O (racemic)
IC50 (Acetylcholinesterase): 133 nM
IC50 (Cholinesterase): 21.1 nM
IC50 [1]: 3100 nM
IC50 (Huh-7): 18000 nM
IC50 (Caco-2): 24000 nM
IC50 (MDA-MB-231): 17000 nM
IC50 (HCT-116): 17000 nM
IC50 (PC-3): 27000 nM
IC50 (NCI-H727): > 25000 nM
IC50 [2]: 4200 nM

O=C(Nc1cc(CCc2cn(CCNc3c4c(nc5ccccc35)CCCC4)nn2)ccn1)Nc1cccc2c1C1CCCCN1C2=O (racemic)
IC50 (Acetylcholinesterase): 23.6 nM
IC50 (Cholinesterase): 65.7 nM
IC50 [1]: 800 nM
IC50 (Huh-7): 2900 nM
IC50 (Caco-2): 4800 nM
IC50 (MDA-MB-231): 2000 nM
IC50 (HCT-116): 1100 nM
IC50 (PC-3): 1600 nM
IC50 (NCI-H727): 6300 nM
IC50 (HaCaT): 1900 nM
IC50 [2]: 21 nM

CN(Cc1ccnc(NC(=O)Nc2cccc3c2C2CCCCN2C3=O)c1)Cc1cn(CCNc2c3c(nc4ccccc24)CCCC3)nn1 (racemic)
IC50 (Acetylcholinesterase): 58.6 nM
IC50 (Cholinesterase): 206 nM
IC50 [1]: 310 nM
IC50 (Huh-7): 2000 nM
IC50 (Caco-2): 9000 nM
IC50 (MDA-MB-231): 2000 nM
IC50 (HCT-116): 2000 nM
IC50 (PC-3): 3000 nM
IC50 (NCI-H727): 4000 nM
IC50 (HaCaT): 2000 nM
cytotoxicity at 24 h, 100 µM [3]: 50%
IC50 (SH-SY5Y): 25000 nM
Activity (MDCK-MDR1): Non-Toxic
IC50 [2]: 10 nM
Papp A→B (MDR1 [4]): 10.1 ×10⁻⁶ cm/s
Papp B→A (MDR1 [5]): 8.4 ×10⁻⁶ cm/s
efflux ratio (MDR1 [6]): 0.83

C#Cc1ccnc(NC(=O)Nc2cccc3c2C2CCCCN2C3=O)c1 (racemic)
IC50 [1]: 68 nM
IC50 [2]: 41 nM

C#Cc1ccnc(NC(=O)Nc2cccc3c2[C@@H]2CCCCN2C3=O)c1
IC50 [1]: 50 nM
IC50 [2]: 90 nM

O=C(Nc1cc(COCc2cn(CCNc3c4c(nc5ccccc35)CCCC4)nn2)ccn1)Nc1cccc2c1C1CCCCN1C2=O (racemic)
IC50 (Acetylcholinesterase): 20.8 nM
IC50 (Cholinesterase): 169 nM
IC50 [1]: 300 nM
IC50 (Huh-7): 4000 nM
IC50 (Caco-2): 20000 nM
IC50 (MDA-MB-231): 4000 nM
IC50 (HCT-116): 4000 nM
IC50 (PC-3): 7000 nM
IC50 (NCI-H727): 9000 nM
IC50 (HaCaT): 4000 nM
cytotoxicity at 24 h, 100 µM [3]: 50%
IC50 (SH-SY5Y): 22000 nM
Activity (MDCK-MDR1): Non-Toxic
IC50 [2]: 10 nM
Papp A→B (MDR1 [4]): 13.5 ×10⁻⁶ cm/s
Papp B→A (MDR1 [5]): 20.8 ×10⁻⁶ cm/s
efflux ratio (MDR1 [6]): 1.54

O=C(Nc1ccc(-c2cn(CCNc3c4c(nc5ccccc35)CCCC4)nn2)cn1)Nc1cccc2c1C1CCCCN1C2=O (racemic)
IC50 (Acetylcholinesterase): 0.8 nM
IC50 (Cholinesterase): 185 nM
IC50 [1]: > 10000 nM
IC50 (Huh-7): > 25000 nM
IC50 (Caco-2): > 25000 nM
IC50 (MDA-MB-231): > 25000 nM
IC50 (HCT-116): > 25000 nM
IC50 (PC-3): > 25000 nM
IC50 (NCI-H727): > 25000 nM
IC50 [2]: > 10000 nM

C#CCCc1ccnc(NC(=O)Nc2cccc3c2C2CCCCN2C3=O)c1 (racemic)
IC50 [1]: 70 nM
IC50 [2]: 15 nM

c1ccc2c(NCCn3ccnn3)c3c(nc2c1)CCCC3
IC50 [1]: > 10000 nM
IC50 [2]: > 10000 nM

O=C(Nc1cc(-c2cn(CCNc3c4c(nc5ccccc35)CCCC4)nn2)ccn1)Nc1cccc2c1[C@H]1CCCCN1C2=O
IC50 (Acetylcholinesterase): 9.5 nM
IC50 (Cholinesterase): 395 nM
IC50 [1]: 500 nM
IC50 (Huh-7): 3500 nM
IC50 (Caco-2): 8000 nM
IC50 (MDA-MB-231): 2000 nM
IC50 (HCT-116): 2200 nM
IC50 (PC-3): 3000 nM
IC50 (NCI-H727): 5000 nM
IC50 [2]: 7 nM

O=C(Nc1cc(COCc2cn(CCCc3ccccc3)nn2)ccn1)Nc1cccc2c1C1CCCCN1C2=O (racemic)
IC50 [1]: 260 nM
IC50 [2]: 8 nM
